We go through 30 compounds from PubChem BioAssay AID179 (DTP/NCI, 2004).

Activity calls are given as the source filed them.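 Rule for the calls: active = compounds giving half or more protection of infected cells from virus-caused growth loss, again on retest; inactive = the rest.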

In this test the test system is CEM cells HIV-1 protection, formazan growth assay. Kind of test: NCI AIDS Antiviral Assay. To be noted: for IC50: measured here: growth of uninfected CEM cells. Summed up:
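Steps: treat uninfected and HIV-1-infected human CEM cells at five drug levels; quantify growth by soluble formazan; retest any compound reaching 50% protection; classify actives from the retest.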

By EC50 is commonly meant the concentration at which the effect is half-maximal. Broadly, the IC50 is the concentration needed to halve the response being measured. Low values mean higher potency, high ones lower potency. `COc1ccc(-c2c(C(C)=O)c(C)n(C3OC(COC(C)=O)C(OC(C)=O)C(OC(C)=O)C3OC(C)=O)c(=S)c2C#N)cc1` (centres undefined): the EC50 was over 200 µM and the IC50 turned out to be 87.1 µM.

For the compound `COC1(C)C(=O)N2C1N(C(=O)OCc1ccccc1)CC2(C)C` (centres undefined), the EC50 was over 251 µM and the IC50 was over 251 µM.

`CC1S(=O)C(C)S(=O)C(C)S1=O` (centres undefined): the outcome was inactive.

`CSc1ccn(C2CC(F)C(CO)O2)c(=O)n1` (centres undefined): the EC50 was 42.7 µM and the IC50 is over 200 µM.

Take `CCOC(=O)c1ccc[c]([Sb](=[O])([OH])[OH])c1`: the half-maximal effective concentration (EC50) was 4.9 µM and the IC50 worked out at 398 µM.

Take `CCN(CC)CC(=O)Nc1ccc2c(c1)C(=O)c1ccc(NC(=O)CN(CC)CC)cc1C2=O`: the EC50 is over 100 µM and the IC50 turned out to be 2.09 µM.

`CCCCCCCCCCCC(=O)OCCOCCOCCOCCOCCOCc1ccc(OC)cc1`: the outcome was inactive.

In the case of `O=C(CC(=O)c1ccc([N+](=O)[O-])cc1)C(=O)Nc1nccs1`, the EC50 was over 186 µM and the IC50 came to 155 µM.

For `CCN(CC)/[N+]([O-])=N/OS(=O)(=O)N(C)C`, the EC50 is over 200 µM and the IC50 is over 200 µM.

Turning to `CCSc1nc2n(c(=S)n1)CCN2C`, the EC50 was over 708 µM and the IC50 was 138 µM.

As for `N#C[C@H](c1nc2ccccc2[nH]1)c1nc2ccccc2nc1Cl`, the EC50 was over 200 µM and the IC50 was found to be 11 µM.

With `CN(C)/C=C/c1c2c(nc3ccccc13)C(=O)c1cccnc1C2=O`, the result was inactive.

Turning to `COc1ccc(-c2nc(N)n(C)c2SSc2c(-c3ccc(OC)cc3)nc(N)n2C)cc1`, the EC50 is over 45.7 µM and the IC50 turned out to be 3.98 µM.

As for `O=c1ccc2ccccc2n1O`, the EC50 is over 200 µM and the IC50 is over 200 µM.

For the compound `CS(=O)(=O)N1CC(CCl)c2ccc(O)cc21` (centres undefined), the EC50 was over 200 µM and the IC50 is 1.86 µM.

With `COC(=O)C(Cc1nc2ccccc2[nH]c1=O)C(=O)C(=O)Nc1cc(C(F)(F)F)ccc1Cl` (centres undefined), the EC50 is over 74.1 µM and the IC50 turned out to be 7.41 µM.

On to `CC(=O)N/C(=C\c1ccc(Cc2nc3c([nH]2)C(=O)c2ccccc2C3=O)cc1)c1nc2c([nH]1)C(=O)c1ccccc1C2=O`, for which the EC50 is over 12.6 µM and the IC50 is over 12.6 µM.

As to `Cn1c2ccccc2c(=O)c2c(O)cc3c(c21)CC(C1(C)CO1)O3` (centres undefined), the EC50 was over 6.17 µM and the 50% inhibitory concentration (IC50) worked out at 0.209 µM.

For the compound `Oc1c(C(O)N2CCOCC2)cc(C(O)N2CCOCC2)c(O)c1O` (centres undefined) (tested in a mixture with another compound), the EC50 is over 200 µM and the 50% inhibitory concentration (IC50) came to 1.91 µM.

For the compound `COc1ccc2c(c1)CCC1=C2C=C[P+]1(C)C`, the result was inactive.

For the compound `Cn1c(/C=N/NC(=O)c2ccc(C(=O)N/N=C/c3c[n+]4ccccc4n3C)cc2)c[n+]2ccccc12`, the EC50 was 35.5 µM and the IC50 is 43.7 µM.

Take `O=C1NC(=O)C(=Cc2ccc3c(c2)OCO3)C(=O)N1`: the EC50 is over 14.5 µM and the concentration for half-maximal inhibition (IC50) was over 14.5 µM.

Regarding `O=C1N2CCNc3ccccc3C(c3ccccc3)N1CC2` (centres undefined), the EC50 is over 200 µM and the IC50 came to 18.6 µM.

Take `O=C(CC(C(=O)c1cccs1)c1cccs1)c1ccccc1Cl` (centres undefined): the EC50 is over 200 µM and the half-inhibitory concentration (IC50) was 18.6 µM.

Turning to `COc1ccc(N=C(CS(=O)c2ccc(C)cc2)C(F)(F)F)cc1` (centres undefined), the EC50 is over 200 µM and the IC50 came out at 91.2 µM.

For `COc1ccc(/C=C(\C)C=O)cc1`, the EC50 was over 204 µM and the half-inhibitory concentration (IC50) was over 204 µM.

`C[C@H]1C(=O)c2c(cc(O)c(C3OC(CO)C(O)C(O)C3O)c2O)OC1c1ccc(O)c(O)c1` (some centres undefined): the result was inactive.

Turning to `NC(N)=NCCCC(Nc1c2ccccc2nc2ccccc12)C(=O)O` (centres undefined), the outcome was inactive.

For the compound `CSCCCNC(=O)c1csc(-c2csc(CCNC(=O)CNC(=O)OC(C)(C)C)n2)n1`, the EC50 was over 501 µM and the IC50 came out at 234 µM.

For the compound `COC(=O)C1Cc2cc3c(cc2C1)CCC3`, the EC50 was over 200 µM and the IC50 is over 200 µM.
